This is an account of results in US6369057B1, “Quinoxalines, processes for their preparation and their use” (Aventis Pharma Deutschland GmbH, priority 1991, dated 2002).

Where only a bound is given, the exact number is not on record here.

Experiment [1] relates to HIV. In words: Test of preparations against HIV in cell culture (T-cell culture assay). The note with it: lowest concentration where no giant cells were observed; HIV-infected lymphocytes from donor blood, 3 days at 37° C. The class given is cell-based. How it is done:
Test of Preparations Against HIV in Cell Culture
Complete medium additionally contains 20% fetal calf serum and 40 IU/ml recombinant interleukin 2.
Lymphocytes which have been isolated from fresh donor blood by means of Ficoll gradient centrifugation are cultured for 36 hours in complete medium with an addition of 2 μg/ml phytohemagglutinin (Wellcome) at 37° C. under 5% of CO2. After 10% of DMSO has been added, the cells are frozen at a density of 5 [formula]10^6 and stored in liquid nitrogen. For the test, the cells are defrosted, washed in RPMI medium and cultured for 3-4 days in the complete medium.
The test preparations were dissolved in DMSO at a concentration of 16.7 mg/ml and diluted in complete medium to 1 mg/ml.
0.4 ml of medium was introduced into 24-multiwell dishes. 0.1 ml of the dissolved preparation was added to the upper row of the dish, and, by transferring 0.1 ml portions, a geometric dilution series was established. Controls without preparation always contained 0.4 ml of complete medium containing 0.5% of DMSO. Lymphocyte cultures with a cell density of 5 [formula]10^5 cells/ml were infected by adding 1/50 volume supernatant from HIV-infected lymphocyte cultures. The titer of these culture supernatants was determined by end-point titration as 1-5 [formula]10^6 infectious units/ml. After 30 minutes' incubation at 37° C., the infected lymphocytes were removed by centrifugation and taken up in an equal volume of medium. From this cell suspension, 0.6 ml aliquots were transferred into all wells of the test plate. The mixtures were incubated for 3 days at 37° C.
The infected cell cultures were examined under the microscope for the presence of giant cells, which indicate active virus multiplication in the culture. The lowest concentration of preparation where no giant cells were observed was determined as inhibitory concentration against HIV. As a control, the supernatants from the culture plates were tested for the presence of HIV antigen with the aid of an HIV antigen test following the manufacturer's instructions (Organon).

For experiment [2], the target named is T1, HIV reverse transcriptase (RT) (Human immunodeficiency virus type 1 group M subtype B, UniProt P03366).
T1 construct: The enzyme RT (from HIV cloned in E. coli); purchased HT-Biotechnology Ltd, Cambridge, UK; host or cells: E. coli
In words: Assay for HIV reverse transcriptase inhibition (scintillation proximity assay). In kind it is biochemical. The note with it: RT from HIV cloned in E. coli; SPA, 60 minutes (37° C.). The protocol: Assay of the Substances for HIV Reverse Transcriptase Inhibition
The activity of reverse transcriptase (RT) was determined with the aid of a scintillation proximity assay (SPA).
The reagent kit for the RT-SPA was obtained from Amersham/Buchler (Braunschweig).
The enzyme RT (from HIV cloned in E. coli) originated from HT-Biotechnology Ltd, Cambridge, UK.
The assay was carried out using the manufacturer's (Amersham) protocol manual, with the following modifications: bovine serum albumin was added to the assay buffer to give an end concentration of 0.5 mg/ml the assay was carried out in Eppendorf reaction vessels, using 100 μl volume per batch the manufacturer's RT concentrate (5000 U/ml) was diluted in Tris-HCl buffer 20 mM; pH 7.2; 30% of glycerol, to an activity of 15 U per ml the incubation time for the mixtures was 60 minutes (37° C.) after stopping the reaction and “developing” with the bead suspension, 130 μl of mixture were transferred to 4.5 ml of Tris-HCl buffer, 10 mM; pH 7.4; 0.15 M NaCl, and the tritium activity was measured by means of a [formula]-counter.
For a pre-assay for inhibitory activity, the substances were dissolved in DMSO (stock solution c=1 mg/ml), and tested as a 10^−1, 10^−2, 10^−3, etc., dilution in DMSO.
To determine IC50 values, the inhibitor stock solutions were diluted further in Tris-HCl buffer, 50 mM, pH 8, and tested in suitable concentrations.
The concentration corresponding to a 50% enzyme inhibition was determined from a plot of RT activity versus log Clnh.

Take `CC(C)=CCN1c2cc(Cl)ccc2NC(=O)C1C` (racemic) [VI-C, (3RS)-6-Chloro-3-methyl-4-N-(3-methyl-2-buten-1-yI)-3,4-dihydroquinoxalin-2(1H)-one]: the “T-cell culture assay MIC” value in experiment [1] was below 0.8 µg/mL. For the same compound, the “Reverse Transcriptase Assay IC50” value in experiment [2] was 0.8 µg/mL.
As for `C=CCOC(=O)N1c2cc(Cl)ccc2NC(=O)C1C` (stereo not drawn) [Example 3-7], the “T-cell culture assay MIC” value in experiment [1] stood at 0.08 µg/mL. In addition, the “Reverse Transcriptase Assay IC50” value in experiment [2] is 0.08 µg/mL.
As for `CCOC(=O)N1c2cc(Cl)ccc2NC(=O)C1C` (stereo not drawn) [Example 3-23], the “T-cell culture assay MIC” value in experiment [1] is 0.08 µg/mL. Besides, the “Reverse Transcriptase Assay IC50” value in experiment [2] lay within 0.1 to 1 µg/mL.
As to `CCCOC(=O)N1c2cc(Cl)ccc2NC(=O)C1C` (stereo not drawn) [Example 3-24], in experiment [1], the “T-cell culture assay MIC” value came to 0.08 µg/mL. Moreover, the “Reverse Transcriptase Assay IC50” value in experiment [2] is 0.1 to 1 µg/mL.
On the same counts, the results for `CCCCOC(=O)N1c2cc(Cl)ccc2NC(=O)C1C` (stereo not drawn) [Example 3-25] are 0.4 µg/mL and 0.1 to 1 µg/mL.
In the case of `CCC1C(=O)Nc2ccc(Cl)cc2N1CC=C(C)C` (stereo not drawn) [Example 3-29], the “T-cell culture assay MIC” value in experiment [1] was below 0.4 µg/mL. For the same compound, the “Reverse Transcriptase Assay IC50” value in experiment [2] is 0.1 to 1 µg/mL.
On the same counts, the results for `C=C(C)OC(=O)N1c2cc(Cl)ccc2NC(=O)C1CC` (stereo not drawn) [Example 3-30] are below 0.01 µg/mL and 0.025 µg/mL.
On the same counts, the results for `C=CCOC(=O)N1c2cc(Cl)ccc2NC(=O)C1CC` (stereo not drawn) [Example 3-32] are below 0.4 µg/mL and “approx. 0.1 μg/ml”.
On the same counts, the results for `C=C(C)OC(=O)N1c2cc(Cl)ccc2NC(=O)C1CC(C)C` (stereo not drawn) [Example 3-49] are below 0.8 µg/mL and “approx. 1 μg/ml”.
With `C=C(C)OC(=O)N1c2ccc(Cl)cc2NC(=O)C1C(C)C` (stereo not drawn) [Example 3-57], in experiment [1], the “T-cell culture assay MIC” value is below 0.8 µg/mL. Further, in experiment [2], the “Reverse Transcriptase Assay IC50” value is given as “approx. 1 μg/ml”.
The matching figures for `CSCC1C(=O)Nc2ccc(Cl)cc2N1CC=C(C)C` (stereo not drawn) [Example 3-75]: below 0.8 µg/mL and 0.1 to 1 µg/mL.
The matching figures for `C=C(C)OC(=O)N1c2cc(Cl)ccc2NC(=O)C1CSC` (stereo not drawn) [Example 3-76]: below 0.08 µg/mL and 0.018 µg/mL.
The matching figures for `C=C(C)OC(=O)N1c2cc(Cl)ccc2NC(=O)C1C(C)CC` (stereo not drawn) [Example 3-81]: 0.08 µg/mL and “approx. 1 μg/ml”.
Consider `CC(C)=CCN1c2cc(Cl)ccc2NC(=O)C1(C)C` [Example 6-1], for which, in experiment [1], the “T-cell culture assay MIC” value turned out to be 0.4 µg/mL. In experiment [2], the “Reverse Transcriptase Assay IC50” value was “approx. 1 μg/ml”.
Consider `CC(C)=CCN1c2cccc(C)c2NC(=O)C1(C)C` [Example 6-16], for which the “T-cell culture assay MIC” value in experiment [1] is below 0.8 µg/mL. Further, the “Reverse Transcriptase Assay IC50” value in experiment [2] was “approx. 1 μg/ml”.
On the same counts, the results for `C=C(C)OC(=O)N1c2cccc(C)c2NC(=O)C1(C)C` [Example 6-17] are below 0.8 µg/mL and 0.1 to 1 µg/mL.
In the case of `CC(C)=CCN1c2ccc(C)c(C)c2NC(=O)C1(C)C` [Example 6-27], the “T-cell culture assay MIC” value in experiment [1] is below 0.4 µg/mL. The “Reverse Transcriptase Assay IC50” value in experiment [2] is “approx. 1 μg/ml”.
On the same counts, the results for `C=C(C)OC(=O)N1c2ccc(C)c(C)c2NC(=O)C1(C)C` [Example 6-35] are below 0.08 µg/mL and 0.1 to 1 µg/mL.
The matching figures for `CC(C)OC(=O)N1c2cc(Cl)ccc2NC(=O)C1(C)C` [Example 6-50]: below 0.01 µg/mL and 0.01 to 0.1 µg/mL.
As for `CC(C)=CCN1c2cc(Cl)ccc2NC(=S)C1C` (stereo not drawn) [Example 7-2], in experiment [1], the “T-cell culture assay MIC” value is below 0.01 µg/mL. In addition, the “Reverse Transcriptase Assay IC50” value in experiment [2] came out at 0.07 µg/mL.
On the same counts, the results for `CC1C(=S)Nc2ccc(Cl)cc2N1Cc1ccccc1` (stereo not drawn) [Example 7-3] are below 0.01 µg/mL and 0.07 µg/mL.
On the same counts, the results for `CC(C)=CCN1c2cc(Cl)ccc2NC(=S)C1(C)C` [Example 7-7] are 0.04 µg/mL and 0.1 µg/mL.
Consider `C=CCOC(=O)N1c2cc(Cl)ccc2NC(=S)C1C` (stereo not drawn) [Example 7-10], for which the “T-cell culture assay MIC” value in experiment [1] is below 0.04 µg/mL. Moreover, the “Reverse Transcriptase Assay IC50” value in experiment [2] amounted to 0.11 µg/mL.
The matching figures for `C=C(C)OC(=O)N1c2cc(Cl)ccc2NC(=S)C1(C)C` [Example 7-11]: below 0.01 µg/mL and 0.01 µg/mL.
In the case of `C=C(C)OC(=O)N1c2ccc(Cl)cc2NC(=S)C1(C)C` [Example 7-12], the “T-cell culture assay MIC” value in experiment [1] was below 0.8 µg/mL. The “Reverse Transcriptase Assay IC50” value in experiment [2] was “approx. 1 μg/ml”.
Turning to `CC1(C)Nc2cc(Cl)ccc2NC1=S` [Example 7-13], in experiment [1], the “T-cell culture assay MIC” value is below 0.08 µg/mL. Moreover, the “Reverse Transcriptase Assay IC50” value in experiment [2] is 0.1 to 1 µg/mL.
`C=C(C)OC(=O)N1c2cc(Cl)ccc2NC(=S)C1CC` (stereo not drawn) [Example 7-14]: the “T-cell culture assay MIC” value in experiment [1] is below 0.08 µg/mL. For the same compound, in experiment [2], the “Reverse Transcriptase Assay IC50” value was in the range of 0.01 to 0.1 µg/mL.
For `CC(C)=CCN1c2cc(C)c(C)cc2NC(=S)C1(C)C` [Example 7-16], the “T-cell culture assay MIC” value in experiment [1] is 0.4 µg/mL. The “Reverse Transcriptase Assay IC50” value in experiment [2] is “approx. 1 μg/ml”.
Turning to `C=CCOC(=O)N1c2cc(Cl)ccc2NC(=S)C1(C)C` [Example 7-21], the “T-cell culture assay MIC” value in experiment [1] was below 0.01 µg/mL. Also, the “Reverse Transcriptase Assay IC50” value in experiment [2] is 0.01 to 0.1 µg/mL.
On the same counts, the results for `CC(C)OC(=O)N1c2cc(Cl)ccc2NC(=S)C1(C)C` [Example 7-22] are below 0.01 µg/mL and 0.01 to 0.1 µg/mL.
Consider `C=C(C)OC(=O)N1c2cc(Cl)ccc2NC(=S)C1CSC` (stereo not drawn) [Example 7-23], for which, in experiment [1], the “T-cell culture assay MIC” value was below 0.01 µg/mL. In addition, the “Reverse Transcriptase Assay IC50” value in experiment [2] was in the range of 0.01 to 0.1 µg/mL.
On the same counts, the results for `C#CCN1c2cc(Cl)ccc2NC(=O)C1C` (stereo not drawn) [Example 10-9] are below 0.8 µg/mL and “approx. 1 μg/ml”.
On the same counts, the results for `CC1C(=O)Nc2ccc(Cl)cc2N1Cc1ccccn1` (stereo not drawn) [Example 10-10] are 0.08 µg/mL and “approx. 1 μg/ml”.
The matching figures for `CC1C(=O)Nc2ccc(Cl)cc2N1Cc1ccco1` (stereo not drawn) [Example 10-13]: 0.08 µg/mL and “approx. 1 μg/ml”.
As to `CC1C(=O)Nc2ccc(Cl)cc2N1Cc1cccc([N+](=O)[O-])c1` (stereo not drawn) [Example 10-17], the “T-cell culture assay MIC” value in experiment [1] was found to be 0.8 µg/mL. Also, in experiment [2], the “Reverse Transcriptase Assay IC50” value is “approx. 1 μg/ml”.
The matching figures for `CC1C(=O)Nc2ccc(Cl)cc2N1Cc1ccccc1[N+](=O)[O-]` (stereo not drawn) [Example 10-18]: below 0.8 µg/mL and 0.1 to 1 µg/mL.
With `CC1C(=O)Nc2ccc(Cl)cc2N1Cc1cccc(Cl)c1` (stereo not drawn) [Example 10-20], in experiment [1], the “T-cell culture assay MIC” value is below 0.8 µg/mL. In addition, in experiment [2], the “Reverse Transcriptase Assay IC50” value lay in the range of 0.1 to 1 µg/mL.
On the same counts, the results for `CC1C(=O)Nc2ccc(Cl)cc2N1Cc1ccccc1Cl` (stereo not drawn) [Example 10-21] are below 0.8 µg/mL and 0.1 to 1 µg/mL.
For the compound `CC1C(=O)Nc2ccc(Cl)cc2N1Cc1c(Cl)cccc1Cl` (stereo not drawn) [Example 10-27], the “T-cell culture assay MIC” value in experiment [1] is 0.8 µg/mL. The “Reverse Transcriptase Assay IC50” value in experiment [2] lay within 0.1 to 1 µg/mL.
